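A five-concentration, 48-hour dose response in 96-well plates underlies each endpoint, interpolated linearly between surrounding concentrations. GI50 marks 50% less growth. TGI marks complete inhibition of growth.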
Experiments:
Assay in all cases: NCI anticancer screen, dose series, 48 h
786-0 renal = tested on: 786-0 renal
A498 renal = tested on: A498 renal
A549 NSCLC = tested on: A549 NSCLC
ACHN renal = tested on: ACHN renal
BT-549 breast = tested on: BT-549 breast
CAKI-1 renal = tested on: CAKI-1 renal
CCRF-CEM leukemia = tested on: CCRF-CEM leukemia
COLO 205 colon = tested on: COLO 205 colon
DU-145 prostate = tested on: DU-145 prostate
EKVX NSCLC = tested on: EKVX NSCLC
HCC-2998 colon = tested on: HCC-2998 colon
HCT-116 colon = tested on: HCT-116 colon
HCT-15 colon = tested on: HCT-15 colon
HL-60(TB) leukemia = tested on: HL-60(TB) leukemia
HOP-62 NSCLC = tested on: HOP-62 NSCLC
HOP-92 NSCLC = tested on: HOP-92 NSCLC
HS 578T breast = tested on: HS 578T breast
HT29 colon = tested on: HT29 colon
IGROV1 ovarian = tested on: IGROV1 ovarian
K-562 leukemia = tested on: K-562 leukemia
KM12 colon = tested on: KM12 colon
LOX IMVI melanoma = tested on: LOX IMVI melanoma
M14 melanoma = tested on: M14 melanoma
MALME-3M melanoma = tested on: MALME-3M melanoma
MCF7 breast = tested on: MCF7 breast
MDA-MB-231 breast = tested on: MDA-MB-231 breast
MDA-MB-435 = tested on: MDA-MB-435
MDA-MB-468 breast = tested on: MDA-MB-468 breast
MOLT-4 leukemia = tested on: MOLT-4 leukemia
NCI-H226 lung = tested on: NCI-H226 lung

Cc1ccc(C2CC(c3ccc(NC(=S)Nc4ccccc4)cc3)=NN2c2ccc(S(N)(=O)=O)cc2)cc1 (centres undefined)
GI50 (786-0 renal): 3.89 µM
TGI (786-0 renal): 22.5 µM
GI50 (A498 renal): 6.73 µM
TGI (A498 renal): 25.8 µM
GI50 (A549 NSCLC): 4.09 µM
TGI (A549 NSCLC): > 100 µM
GI50 (ACHN renal): 3.25 µM
TGI (ACHN renal): 11.6 µM
GI50 (BT-549 breast): 6.06 µM
TGI (BT-549 breast): 19.3 µM
GI50 (CAKI-1 renal): 3.12 µM
TGI (CAKI-1 renal): 12.7 µM
GI50 (CCRF-CEM leukemia): 3.18 µM
TGI (CCRF-CEM leukemia): 53.1 µM
GI50 (COLO 205 colon): 3.56 µM
TGI (COLO 205 colon): 12.3 µM
GI50 (DU-145 prostate): 8.22 µM
TGI (DU-145 prostate): 97.1 µM
GI50 (EKVX NSCLC): 3.75 µM
TGI (EKVX NSCLC): 37.3 µM
GI50 (HCC-2998 colon): 3.58 µM
TGI (HCC-2998 colon): 18.3 µM
GI50 (HCT-116 colon): 3.28 µM
TGI (HCT-116 colon): 16.9 µM
GI50 (HCT-15 colon): 3.05 µM
TGI (HCT-15 colon): 18.8 µM
GI50 (HL-60(TB) leukemia): 2.33 µM
TGI (HL-60(TB) leukemia): 6.51 µM
GI50 (HOP-62 NSCLC): 8.74 µM
TGI (HOP-62 NSCLC): 34.2 µM
GI50 (HOP-92 NSCLC): 3.81 µM
TGI (HOP-92 NSCLC): 22 µM
GI50 (HS 578T breast): 8.04 µM
TGI (HS 578T breast): 48.4 µM
GI50 (HT29 colon): 2.55 µM
TGI (HT29 colon): 8.75 µM
GI50 (IGROV1 ovarian): 3.44 µM
TGI (IGROV1 ovarian): 14.7 µM
GI50 (K-562 leukemia): 3.2 µM
TGI (K-562 leukemia): 47.6 µM
GI50 (KM12 colon): 4.67 µM
TGI (KM12 colon): 23.7 µM
GI50 (LOX IMVI melanoma): 4.76 µM
TGI (LOX IMVI melanoma): 20 µM
GI50 (M14 melanoma): 4.2 µM
TGI (M14 melanoma): 17.8 µM
GI50 (MALME-3M melanoma): 6.88 µM
TGI (MALME-3M melanoma): 23.6 µM
GI50 (MCF7 breast): 2.78 µM
TGI (MCF7 breast): 14.2 µM
GI50 (MDA-MB-231 breast): 9.63 µM
TGI (MDA-MB-231 breast): 29.6 µM
GI50 (MDA-MB-435): 3.06 µM
TGI (MDA-MB-435): 25 µM
GI50 (MDA-MB-468 breast): 1.81 µM
TGI (MDA-MB-468 breast): 5.56 µM
GI50 (MOLT-4 leukemia): 2.62 µM
TGI (MOLT-4 leukemia): 13.2 µM
GI50 (NCI-H226 lung): 3.31 µM

From PubChem BioAssay (NCI)
